Assay results published in US20020103261A1, “Compositions for injection or intravenous administration for the treatment of internal infection or inflammation in humans and animals” (priority 2000, published 2002).

Key:
[1] = inactive metabolites after enzymatic degradation; cited from earlier work
Solubility in lipids = assay type: physicochemical

SMILES	metabolites expired from the lungs in the form of CO2 [1] [%]	solubility in lipids (Solubility in lipids)	metabolites excreted in the urine [1]
Cc1ccc(C(C)C)c(O)c1 [isopropyl-cresol, 5-methyl-2[1-methylethyl]phenol]	10		
Cc1ccc(C(C)C)cc1O [isopropyl-o-cresol, 5-isopropyl-2-methylphenol]	10	soluble in lipids	approx. 90%
